Measured values taken from ChEMBL document CHEMBL4476878, “Galactokinase inhibitors” (2013).
Activity calls are given as the source filed them.

Legend:
[1] = target: Galactokinase (Homo sapiens) (UniProt P51570); test: Inhibition of His6-tagged recombinant human GALK expressed in Escherichia coli HMS174 (DE3) incubated for 60 mins using galactose and ATP by Kinase-Glo reagent based assay
[2] = system: Geobacillus stearothermophilus; test: Inhibition of Bacillus stearothermophilus glucokinase
[3] = system: Saccharomyces cerevisiae; test: Inhibition of Saccharomyces cerevisiae hexokinase
[4] = target: Galactokinase (Homo sapiens) (UniProt P51570); test: Inhibition of His6-tagged recombinant human GALK expressed in Escherichia coli HMS174 (DE3) by pyruvate kinase/lactate dehydrogenase-coupled assay
[5] = target: Galactokinase (Homo sapiens) (UniProt P51570); test: Inhibition of His6-tagged recombinant human GALK expressed in Escherichia coli HMS174 (DE3) at 5 to 15 uM incubated for 60 mins using galactose and ATP by Kinase-Glo reagent based assay
[6] = target: T1, 4-diphosphocytidyl-2-C-methyl-D-erythritol kinase (Escherichia coli (strain K12)) (UniProt P62615); test: Inhibition of purified Escherichia coli CDP-ME kinase IspE expressed in Escherichia coli HMS174 at 10 to 50 uM by luciferase-luciferin based luminescence-based assay
T1 sequence (whole entry): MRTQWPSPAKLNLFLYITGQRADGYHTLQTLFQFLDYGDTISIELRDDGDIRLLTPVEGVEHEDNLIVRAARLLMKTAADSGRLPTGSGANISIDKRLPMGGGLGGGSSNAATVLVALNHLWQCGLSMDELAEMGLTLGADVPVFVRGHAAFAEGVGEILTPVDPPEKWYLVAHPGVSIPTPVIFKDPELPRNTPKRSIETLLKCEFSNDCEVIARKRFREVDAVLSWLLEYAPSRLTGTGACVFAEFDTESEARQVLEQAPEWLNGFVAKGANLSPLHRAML

Measured: inhibition

Sequence of Galactokinase (Homo sapiens) (P51570 whole entry): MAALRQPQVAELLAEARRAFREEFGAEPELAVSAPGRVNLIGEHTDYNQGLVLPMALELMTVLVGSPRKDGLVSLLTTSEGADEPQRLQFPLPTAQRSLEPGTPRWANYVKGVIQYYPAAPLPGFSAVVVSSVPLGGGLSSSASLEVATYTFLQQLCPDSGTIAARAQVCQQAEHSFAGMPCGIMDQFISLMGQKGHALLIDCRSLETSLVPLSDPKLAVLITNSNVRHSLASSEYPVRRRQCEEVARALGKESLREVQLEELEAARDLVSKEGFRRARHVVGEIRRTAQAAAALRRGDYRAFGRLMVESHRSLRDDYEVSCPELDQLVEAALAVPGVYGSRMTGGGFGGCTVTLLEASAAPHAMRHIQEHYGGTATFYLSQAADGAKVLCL

O=C1OC2(c3ccccc31)c1cc(I)c(O)c(I)c1Oc1c2cc(I)c(O)c1I
active: [1] | [2] | [3]

Cc1ccc(CSc2nc(C(=O)O)ccc2C#N)cc1
active: [1] | [2] | [3]

N#CC1=C(SCc2ccccc2)SC(c2ccc(C(=O)O)cc2)NC1=O (stereo not drawn)
active: [1] | [2] | [3]

CCSC1=C(C#N)C(=O)NC(/C=C/c2ccccc2)S1 (stereo not drawn)
active: [1] | [2] | [3]

O=C1C=C2N(c3ccccc3)CCOC2(O)c2ccccc21 (stereo not drawn)
active: [1] | [2] | [3]

CC1(C)CCC2=C(O1)c1ccccc1C(=O)C2=O
active: [1] | [2] | [3]

O=C1C(NS(=O)(=O)c2ccccc2)=C/C(=N\S(=O)(=O)c2ccc(F)cc2)c2ccccc21
active: [1] | [2] | [3]

O=C1O[C@H](c2ccccc2)[C@H](c2ccccc2)N2[C@H]1[C@@H](C(=O)O)[C@]1(C(=O)Nc3ccc(C#CC4(O)CCCCCC4)cc31)[C@H]2c1ccc(OCCO)cc1
active: [1] | [2] | [3]

O=C1Nc2ccc(I)cc2/C1=C/c1cc(Br)c(O)c(Br)c1
active: [1] | [2] | [3]

Oc1c(Cl)cc(Cl)c(Cl)c1Cc1c(O)c(Cl)cc(Cl)c1Cl
active: [1] | [2] | [3] | [4]

Cc1c(N=c2c(=O)c3ccccc3c2=O)c(=O)n(-c2ccccc2)n1C
active: [1] | [2] | [3]

CC1(c2ccccc2)CC(C)(C)N2C(=O)/C(=C3/SC(=O)NC3=O)c3cccc1c32 (stereo not drawn)
active: [1] | [2] | [3] | [4]

Nc1ncnc2c1ncn2[C@@H]1O[C@H](COP(=O)(O)OP(=O)(O)OP(O)(O)=S)[C@@H](O)[C@H]1O
active: [5]

CC(C)OC1(O)C(=O)c2ccccc2C(=O)C1(O)OC(C)C (stereo not drawn)
active: [1] | [2] | [3]

O=C1NC(=S)N(c2cccc3ccccc23)C(=O)/C1=C/c1c[nH]c2ccccc12
active: [1] | [2] | [3]

O=C1NC(=O)N(c2ccccc2)C(=O)/C1=C/c1c2ccccc2cc2ccccc12
active: [1] | [2] | [3]

CC1=NOC(=O)/C1=C\c1ccc(-c2ccccc2)o1
active: [1] | [2] | [3]

O=C1OC2(CCCC2)OC(=O)C1=Cc1ccc(OCc2ccccc2)cc1
active: [1] | [2] | [3]

CCOc1cccc(NC(=O)C2CC(=O)N(/N=C(\C)c3ccc(Br)s3)C(=N)S2)c1 (stereo not drawn)
active: [1] | [2] | [3]

COC1=C(N)C(=O)c2nc(-c3nc(C(=O)O)c(C)c(-c4ccc(OC)c(OC)c4O)c3N)ccc2C1=O
active: [1] | [2] | [3] | [4]

Cc1c(O)c(C(=O)CC(C)C)c2oc3c(C(=O)CC(C)C)c(O)c(C)c(O)c3c2c1O
active: [1] | [2] | [3]

COC(=O)CSC1=C(C#N)C(=O)NC(c2ccccc2O)S1 (stereo not drawn)
active: [1] | [2] | [3]

Oc1c(Cl)cc(Cl)cc1Sc1cc(Cl)cc(Cl)c1O
active: [1] | [2] | [3]

CC1=NN(c2cccc(C(=O)O)c2)C(=O)/C1=C/c1ccc(-c2cccc(Cl)c2C)o1
active: [1] | [2] | [3]

Cc1cc2c(C(C)C)c(O)c(O)c(C=O)c2c(O)c1-c1c(C)cc2c(C(C)C)c(O)c(O)c(C=O)c2c1O
active: [6]

Cn1c(=S)[nH]c2sc3c(c2c1=O)CCC(C(C)(C)C)C3 (stereo not drawn)
active: [1] | [2] | [3]

O=C1OC(c2ccccc2)OC(=O)C1=C/C=C/c1ccccc1 (stereo not drawn)
active: [1] | [2] | [3]

COc1cc(/C=C2/SC(=S)NC2=O)ccc1OC(=O)c1cccc(C)c1
active: [1] | [2] | [3]

N#Cc1ccc(CSc2nc(-c3cccs3)c3c(c2C(=O)O)CCCC3)cc1
active: [1] | [2] | [3]

CC(C)(C)c1cc(/C=C2/SC(=S)NC2=O)cc(C(C)(C)C)c1O
active: [1] | [2] | [3]

N#Cc1c(-c2ccc(Cl)cc2)nc(SCc2ccccc2)[nH]c1=S
active: [1] | [2] | [3]

O=C(NC1(O)C(=O)c2ccccc2C1=O)c1cnn(-c2ccccc2)c1C(F)(F)F
active: [1] | [2] | [3]

c1ccc(-c2cnc3nonc3n2)cc1
active: [1] | [2] | [3]

CC(C)(C)C(=O)Nc1ccc2c(c1)C(=O)C(=O)c1ccccc1-2
active: [1] | [2] | [3] | [4]

N#CC1=C(SCc2ccccc2)SC(c2ccccc2O)NC1=O (stereo not drawn)
active: [1] | [2] | [3]

Cc1cccc(OCCOc2ccc(Br)cc2/C=C2\SC(=S)NC2=O)c1
active: [1] | [2] | [3]
